Reference: the supplement of paper PMC10307832

Assays:
Experiment in all cases: relative viability (nuclei count vs DMSO), 5 days (fraction); higher = more cells survive
Ponatinib + Palbociclib = compound: Cc1ccc(C(=O)Nc2ccc(CN3CCN(C)CC3)c(C(F)(F)F)c2)cc1C#Cc1cnc2cccnn12 [Ponatinib] + CC(=O)c1c(C)c2cnc(Nc3ccc(N4CCNCC4)cn3)nc2n(C2CCCC2)c1=O [Palbociclib] (partner 0.5 µM)
How it was run: (§1)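 Lung cancer cell lines in 1536-well plates were dosed by pin tool the day after seeding, either with one drug alone or with a fixed anchor-drug dose plus five library-drug doses (not always all listed) in √10 steps. After 5 days, cells were fixed and their nuclei stained in one step (final 0.05% Triton X-100, 1% formaldehyde, 1 ug/ml Hoechst), then counted on 4× images. Relative viability is the nuclei count in treated wells divided by that in vehicle wells. Values are medians of duplicate plates.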

Ponatinib + Navitoclax = compound: Cc1ccc(C(=O)Nc2ccc(CN3CCN(C)CC3)c(C(F)(F)F)c2)cc1C#Cc1cnc2cccnn12 [Ponatinib] + CC1(C)CCC(c2ccc(Cl)cc2)=C(CN2CCN(c3ccc(C(=O)NS(=O)(=O)c4ccc(N[C@H](CCN5CCOCC5)CSc5ccccc5)c(S(=O)(=O)C(F)(F)F)c4)cc3)CC2)C1 [Navitoclax] (partner 0.5 µM)
How it was run: as §1

Pazopanib + Crizotinib = compound: Cc1ccc(Nc2nccc(N(C)c3ccc4c(C)n(C)nc4c3)n2)cc1S(N)(=O)=O [Pazopanib] + C[C@@H](Oc1cc(-c2cnn(C3CCNCC3)c2)cnc1N)c1c(Cl)ccc(F)c1Cl [Crizotinib] (partner 1 µM)
How it was run: as §1

Pazopanib + Linsitinib = compound: Cc1ccc(Nc2nccc(N(C)c3ccc4c(C)n(C)nc4c3)n2)cc1S(N)(=O)=O [Pazopanib] + C[C@]1(O)C[C@@H](c2nc(-c3ccc4ccc(-c5ccccc5)nc4c3)c3c(N)nccn32)C1 [Linsitinib] (partner 1 µM)
How it was run: as §1

| Cell Line | relative viability (Ponatinib + Palbociclib; first compound 0.002 µM) | relative viability (Ponatinib + Palbociclib; first compound 0.006325 µM) | relative viability (Ponatinib + Palbociclib; first compound 0.06325 µM) | relative viability (Ponatinib + Palbociclib; first compound 0.2 µM) | relative viability (Ponatinib + Navitoclax; first compound 0.002 µM) | relative viability (Ponatinib + Navitoclax; first compound 0.006325 µM) | relative viability (Ponatinib + Navitoclax; first compound 0.06325 µM) | relative viability (Ponatinib + Navitoclax; first compound 0.2 µM) | relative viability (Pazopanib + Crizotinib; first compound 0.01 µM) | relative viability (Pazopanib + Crizotinib; first compound 0.03162 µM) | relative viability (Pazopanib + Crizotinib; first compound 0.1 µM) | relative viability (Pazopanib + Crizotinib; first compound 0.3162 µM) | relative viability (Pazopanib + Crizotinib; first compound 1 µM) | relative viability (Pazopanib + Linsitinib; first compound 0.01 µM) | relative viability (Pazopanib + Linsitinib; first compound 0.03162 µM) | relative viability (Pazopanib + Linsitinib; first compound 0.1 µM) | relative viability (Pazopanib + Linsitinib; first compound 0.3162 µM) | relative viability (Pazopanib + Linsitinib; first compound 1 µM) |
| --- | --- | --- | --- | --- | --- | --- | --- | --- | --- | --- | --- | --- | --- | --- | --- | --- | --- | --- |
| NCI-H1437 | 0.285 | 0.318 | 0.316 | 0.332 | 1.06 | 1.08 | 1.22 | 1.08 | 0.936 | 0.935 | 0.953 | 0.807 | 1.05 | 1.04 | 1.07 | 0.973 | 1.04 | 1.05 |
| NCI-H1651 | 0.529 | 0.539 | 0.557 | 0.552 | 1.01 | 1.06 | 1.25 | 1.06 | 0.809 | 0.775 | 0.822 | 0.853 | 0.924 | 1.11 | 0.901 | 0.886 | 0.982 | 1.08 |
| NCI-H1666 | 0.661 | 0.659 | 0.666 | 0.639 | 0.94 | 1.15 | 1.18 | 0.979 | 1.09 | 1 | 0.875 | 1.09 | 1.27 | 1.15 | 0.857 | 0.909 | 0.767 | 1.07 |
| NCI-H1734 | 0.34 | 0.358 | 0.347 | 0.284 | 0.805 | 0.828 | 0.877 | 0.739 | 0.689 | 0.727 | 0.614 | 0.658 | 0.622 | 0.823 | 0.963 | 0.905 | 0.942 | 0.933 |
| NCI-H1755 | 0.419 | 0.44 | 0.413 | 0.369 | 0.962 | 0.947 | 1.02 | 0.803 | 0.817 | 0.847 | 0.962 | 0.844 | 0.857 | 0.934 | 0.995 | 1.01 | 0.967 | 1.01 |
| NCI-H1792 | 0.605 | 0.66 | 0.655 | 0.62 | 0.609 | 0.648 | 0.582 | 0.624 |  | 0.927 | 0.967 | 0.912 | 0.952 |  | 0.534 | 0.601 | 0.522 | 0.588 |
| NCI-H1915 | 0.522 | 0.554 | 0.523 | 0.466 | 0.779 | 0.795 | 0.772 | 0.746 | 0.875 | 0.974 | 0.911 | 0.847 | 0.79 | 1.12 | 1.14 | 1.08 | 1.03 | 0.994 |
| NCI-H1944 | 0.331 | 0.392 | 0.435 | 0.338 | 1.04 | 1.09 | 1.2 | 1.02 | 1.13 | 1.11 | 1.05 | 1.04 | 1.05 | 1.08 | 1.28 | 1.15 | 1.24 | 1.32 |
| NCI-H1975 | 0.427 | 0.557 | 0.642 | 0.537 | 1.18 | 1.01 | 1.2 | 0.915 | 0.888 | 1.02 | 0.991 | 0.964 | 0.926 | 0.85 | 0.943 | 0.992 | 0.929 | 0.985 |
| NCI-H1993 | 0.557 | 0.613 | 0.779 | 0.771 | 0.881 | 1.07 | 1.25 | 0.943 | 0.871 | 0.902 | 0.971 | 0.926 | 0.877 | 0.717 | 0.757 | 0.726 | 0.638 | 0.852 |
| NCI-H2009 | 0.161 | 0.225 | 0.238 | 0.202 | 1.12 | 1.07 | 1.13 | 1.13 | 1.05 | 1.06 | 1.01 | 1.05 | 0.964 | 1.22 | 1.22 | 1.21 | 1.15 | 1.06 |
| NCI-H2023 | 0.447 | 0.456 | 0.402 | 0.438 | 0.968 | 0.946 | 1.1 | 1 | 0.695 | 0.762 | 0.666 | 0.613 | 0.728 | 0.699 | 0.637 | 0.863 | 0.623 | 0.682 |
| NCI-H2085 | 0.466 | 0.458 | 0.509 | 0.509 | 1.1 | 1.16 | 1.28 | 1.16 | 0.952 | 0.968 | 0.911 | 0.919 | 0.935 | 0.818 | 0.862 | 0.901 | 0.797 | 0.887 |
| NCI-H2087 | 0.259 | 0.25 | 0.259 | 0.329 | 0.825 | 0.771 | 0.864 | 0.995 | 0.952 | 0.76 | 1.01 | 0.812 | 0.701 | 1.02 | 0.967 | 1.13 | 0.841 | 0.895 |
| NCI-H2126 | 0.365 | 0.34 | 0.374 | 0.333 | 0.823 | 0.871 | 0.963 | 0.848 | 0.935 | 1.09 | 1.03 | 0.96 | 1.03 | 0.563 | 0.734 | 0.749 | 0.677 | 0.774 |
| NCI-H2228 | 0.587 | 0.647 | 0.728 | 0.593 | 1.18 | 1.01 | 1.43 | 0.811 | 0.51 | 0.446 | 0.402 | 0.496 | 0.366 | 0.741 | 0.665 | 0.792 | 0.901 | 0.607 |
| NCI-H2347 | 0.504 | 0.441 | 0.451 | 0.404 | 0.684 | 0.834 | 0.899 | 0.719 | 0.885 | 0.643 | 0.662 | 0.691 | 0.842 | 0.854 | 1.01 | 1.1 | 1.09 | 1.12 |
| NCI-H2405 | 0.487 | 0.476 | 0.501 | 0.473 | 0.855 | 0.917 | 0.844 | 0.62 | 0.825 | 0.863 | 0.842 | 0.915 | 0.713 | 0.729 | 1.12 | 1 | 1.12 | 1.02 |
| NCI-H3122 | 0.194 | 0.186 | 0.213 | 0.203 | 1.04 | 1.03 | 1.04 | 1.01 | 0.263 | 0.247 | 0.273 | 0.278 | 0.348 | 0.969 | 1.06 | 0.998 | 1.12 | 0.945 |
| PC-3 [JPC-3] |  | 0.576 | 0.608 | 0.544 | 0.792 | 0.754 | 0.902 | 0.748 | 1.03 | 1.01 | 1.02 | 0.925 | 0.936 | 0.993 | 0.972 | 0.961 | 0.918 | 0.961 |
| PC-14 | 0.464 | 0.533 | 0.73 | 0.584 | 0.927 | 1 | 1.14 | 0.919 | 0.95 | 0.893 | 0.968 | 0.891 | 0.935 | 0.971 | 1 | 0.961 | 0.985 | 1 |
| RERF-LC-KJ | 1.11 | 1.22 | 1.27 | 0.971 | 1.09 | 0.968 | 1.07 | 1.06 | 0.794 | 0.773 | 0.812 | 0.775 | 0.789 | 0.889 | 0.912 | 0.825 | 0.782 | 0.912 |
| SK-LU-1 | 0.378 | 0.415 | 0.342 | 0.353 | 0.702 | 0.792 | 0.902 | 0.453 | 0.952 | 1.02 | 1.14 | 0.976 | 0.852 | 1.02 | 1.22 | 1.17 | 1.27 | 1.11 |
| SK-MES-1 | 0.36 | 0.379 | 0.405 | 0.327 | 1.25 | 1.12 | 1.3 | 1.19 | 0.93 | 1 | 1.01 | 1.01 | 0.98 | 0.983 | 1.01 | 1.12 | 1.15 | 1.02 |
| SW 1573 | 0.411 | 0.402 | 0.341 | 0.401 | 1.02 | 0.989 | 1.03 | 0.901 | 0.813 | 0.878 | 0.974 | 0.836 | 0.757 | 0.716 | 0.798 | 0.817 | 0.935 | 1.01 |
